Experimental data: article PMC8913746, “An open-like conformation of the sigma-1 receptor reveals its ligand entry pathway” (Nature Communications, 2022)
Where a chain is given by its changes, count along the chain named. Several values for one entry are separate records, joined by “and”; a condition that tells them apart may be missing. Equal values may be shown once.

Tests used:
[1] = molecular target: T1, xlσ1R-C179/C203 (Xenopus laevis, UniProt Q6DCU6, L179C/Y203C); assay: ITC binding of PRE084 to xlσ1R-C179/C203 (disulfide oxidation / re-reduction); settings: ITC; for number of available binding sites per protomer (stoichiometry): mean ± SD
T1 construct: The gene encoding the full-length wild-type σ1R from Xenopus laevis; hemagglutinin signal peptide (N); decahistidine (His10) (N); TEV protease recognition site (N); made in house; host or cells: Pichia pastoris GS115
T1 sequence (Q6DCU6 1-221 L179C/Y203C): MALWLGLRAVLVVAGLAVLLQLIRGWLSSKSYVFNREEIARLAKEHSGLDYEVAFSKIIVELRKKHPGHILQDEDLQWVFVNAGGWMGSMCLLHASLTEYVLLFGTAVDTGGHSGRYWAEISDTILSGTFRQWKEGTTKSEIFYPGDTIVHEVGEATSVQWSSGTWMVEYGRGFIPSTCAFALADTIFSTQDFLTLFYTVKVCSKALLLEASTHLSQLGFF

[2] = molecular target: T2, xlσ1R-C179 (Xenopus laevis, UniProt Q6DCU6, L179C); assay: ITC binding of PRE084 to xlσ1R-C179 before/after mPEG-Mal-5K modification; settings: for C179 stoichiometry, Before modification / number of available binding sites per protomer (stoichiometry) / C179 stoichiometry, After modification: ITC; for number of available binding sites per protomer (stoichiometry): mean ± SD; for C179 stoichiometry, After modification: mPEG-Mal-5K
T2 construct: The gene encoding the full-length wild-type σ1R from Xenopus laevis; hemagglutinin signal peptide (N); decahistidine (His10) (N); TEV protease recognition site (N); made in house; host or cells: Pichia pastoris GS115
T2 sequence (Q6DCU6 1-221 L179C): T1 sequence (Q6DCU6 1-221 L179C/Y203C) with C203Y

[3] = molecular target: T3, xlσ1R-C203 (Xenopus laevis, UniProt Q6DCU6, Y203C); assay: ITC binding of PRE084 to xlσ1R-C203 before/after mPEG-Mal-5K modification; settings: for number of available binding sites per protomer (stoichiometry): mean ± SD; for C203 stoichiometry, After modification: mPEG-Mal-5K
T3 construct: The gene encoding the full-length wild-type σ1R from Xenopus laevis; hemagglutinin signal peptide (N); decahistidine (His10) (N); TEV protease recognition site (N); made in house; host or cells: Pichia pastoris GS115
T3 sequence (Q6DCU6 1-221 Y203C): T1 sequence (Q6DCU6 1-221 L179C/Y203C) with C179L

[4] = Mean of repeats (source data Fig. 4b)
[5] = individual repeats (source data Fig. 4b)
[6] = Mean of repeats (source data Fig. 4e)
[7] = individual repeats (source data Fig. 4e)
[8] = ITC, individual repeats (source data Fig. 4e)

SMILES: O=C(OCCN1CCOCC1)C1(c2ccccc2)CCCCC1 [PRE084, [2-(morpholin-4-yl)ethyl] 1-phenylcyclohexane-1-carboxylate]
- increase of Kd after oxidation compared to before oxidation [1]: ~ 9 fold
- C179/C203 stoichiometry, After oxidation [1, 4]: 0.1833
- C179/C203 stoichiometry, Before oxidation [1, 4]: 0.9178
- C179/C203 stoichiometry, Re-reduction [1, 4]: 0.5202
- number of available binding sites per protomer (stoichiometry) ([1]; after oxidation (disulfide formed)): 0.18 ± 0.02
- number of available binding sites per protomer (stoichiometry) ([1]; before oxidation): 0.92 ± 0.01
- C179/C203 stoichiometry, After oxidation [1, 5]: 0.179 and 0.210 and 0.161
- C179/C203 stoichiometry, Before oxidation [1, 5]: 0.933 and 0.929 and 0.922 and 0.901 and 0.904
- C179/C203 stoichiometry, Re-reduction [1, 5]: 0.502 and 0.537 and 0.513 and 0.529
- number of available binding sites per protomer (stoichiometry) ([1]; oxidized sample re-reduced with β-mercaptoethanol): 0.52 ± 0.02
- C179 stoichiometry, Before modification [2, 6]: 0.8482
- number of available binding sites per protomer (stoichiometry) ([2]; after mPEG-Mal-5K modification): 0.48 ± 0.07
- number of available binding sites per protomer (stoichiometry) ([2]; before mPEG-Mal-5K modification): 0.85 ± 0.09
- C179 stoichiometry, Before modification [2, 7]: 0.787 and 0.943 and 0.756 and 0.907
- C179 stoichiometry, After modification [2, 6]: 0.4808
- C179 stoichiometry, After modification [2, 7]: 0.399 and 0.462 and 0.576 and 0.486
- blockade percentage (reduction of available binding sites) ([2]; after mPEG-Mal-5K modification): ~ 44%
- number of available binding sites per protomer (stoichiometry) ([3]; ITC, after mPEG-Mal-5K modification): 0.69 ± 0.04
- number of available binding sites per protomer (stoichiometry) ([3]; ITC, before mPEG-Mal-5K modification): 0.87 ± 0.01
- C203 stoichiometry, Before modification [3, 8]: 0.883 and 0.859 and 0.873
- C203 stoichiometry, After modification ([3]; ITC, Mean of repeats (source data Fig. 4e)): 0.6895
- C203 stoichiometry, After modification [3, 8]: 0.635 and 0.734 and 0.712 and 0.677
- blockade percentage (reduction of available binding sites) ([3]; after mPEG-Mal-5K modification): ~ 21%
